# From PubChem BioAssay (NCI)
#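 Dose response: 5 concentrations. Exposure: 48 h. Format: 96-well plates. Endpoint: linear interpolation; highest concentration if not reached. The concentration for full growth arrest is given as TGI.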
# Assays:
# Assay in all cases: growth of human tumour cells (NCI), 48 h
# BT-549 breast = system: BT-549 breast
# SF-539 CNS = system: SF-539 CNS
# HCT-116 colon = system: HCT-116 colon
# MCF7 breast = system: MCF7 breast
# MALME-3M melanoma = system: MALME-3M melanoma
# RPMI-8226 leukemia = system: RPMI-8226 leukemia
# HOP-62 NSCLC = system: HOP-62 NSCLC
# HOP-92 NSCLC = system: HOP-92 NSCLC
# K-562 leukemia = system: K-562 leukemia
# CCRF-CEM leukemia = system: CCRF-CEM leukemia
# U251 CNS = system: U251 CNS
# PC-3 prostate = system: PC-3 prostate
# UACC-62 melanoma = system: UACC-62 melanoma
# NCI-H226 lung = system: NCI-H226 lung
# IGROV1 ovarian = system: IGROV1 ovarian
# HCT-15 colon = system: HCT-15 colon
# LOX IMVI melanoma = system: LOX IMVI melanoma
# HT29 colon = system: HT29 colon
# SW-620 colon = system: SW-620 colon
# TK-10 renal = system: TK-10 renal
# SK-MEL-28 melanoma = system: SK-MEL-28 melanoma
# MOLT-4 leukemia = system: MOLT-4 leukemia
# MDA-N = system: MDA-N
# OVCAR-4 ovarian = system: OVCAR-4 ovarian
# SF-268 CNS = system: SF-268 CNS
# MDA-MB-231 breast = system: MDA-MB-231 breast
# HS 578T breast = system: HS 578T breast
# A549 NSCLC = system: A549 NSCLC
# DU-145 prostate = system: DU-145 prostate
# HL-60(TB) leukemia = system: HL-60(TB) leukemia
# SK-OV-3 ovarian = system: SK-OV-3 ovarian
# RXF 393 renal = system: RXF 393 renal
# SN12C renal = system: SN12C renal
# OVCAR-8 ovarian = system: OVCAR-8 ovarian
# UO-31 renal = system: UO-31 renal
# EKVX NSCLC = system: EKVX NSCLC
# A498 renal = system: A498 renal
# UACC-257 melanoma = system: UACC-257 melanoma
# COLO 205 colon = system: COLO 205 colon
# NCI-H522 lung = system: NCI-H522 lung
# SF-295 CNS = system: SF-295 CNS
# NCI/ADR-RES ovarian = system: NCI/ADR-RES ovarian
# OVCAR-3 ovarian = system: OVCAR-3 ovarian
# SR leukemia = system: SR leukemia
# MDA-MB-435 = system: MDA-MB-435
# 786-0 renal = system: 786-0 renal
# CAKI-1 renal = system: CAKI-1 renal
# KM12 colon = system: KM12 colon
# NCI-H460 lung = system: NCI-H460 lung
# T-47D breast = system: T-47D breast
# M14 melanoma = system: M14 melanoma
# SK-MEL-2 melanoma = system: SK-MEL-2 melanoma
# NCI-H23 lung = system: NCI-H23 lung
# SNB-19 CNS = system: SNB-19 CNS
# SNB-75 CNS = system: SNB-75 CNS
# SK-MEL-5 melanoma = system: SK-MEL-5 melanoma
# ACHN renal = system: ACHN renal
# HCC-2998 colon = system: HCC-2998 colon
# OVCAR-5 ovarian = system: OVCAR-5 ovarian
smiles,measurement,setting,value
CC(=O)c1nc2ccccc2n1CC(=O)c1ccc(Cl)cc1,TGI,BT-549 breast,> 100 µM
same,TGI,SF-539 CNS,> 100 µM
same,TGI,HCT-116 colon,> 100 µM
same,TGI,MCF7 breast,> 100 µM
same,TGI,MALME-3M melanoma,22.6 µM
same,TGI,RPMI-8226 leukemia,> 100 µM
same,TGI,HOP-62 NSCLC,25.2 µM
same,TGI,HOP-92 NSCLC,22.5 µM
same,TGI,K-562 leukemia,> 100 µM
same,TGI,CCRF-CEM leukemia,> 100 µM
same,TGI,U251 CNS,> 100 µM
same,TGI,PC-3 prostate,60.1 µM
same,TGI,UACC-62 melanoma,27.8 µM
same,TGI,NCI-H226 lung,> 100 µM
same,TGI,IGROV1 ovarian,26.1 µM
same,TGI,HCT-15 colon,> 100 µM
same,TGI,LOX IMVI melanoma,12.6 µM
same,TGI,HT29 colon,35.4 µM
same,TGI,SW-620 colon,44 µM
same,TGI,TK-10 renal,> 100 µM
same,TGI,SK-MEL-28 melanoma,> 100 µM
same,TGI,MOLT-4 leukemia,> 100 µM
same,TGI,MDA-N,> 100 µM
same,TGI,OVCAR-4 ovarian,> 100 µM
same,TGI,SF-268 CNS,> 100 µM
same,TGI,MDA-MB-231 breast,> 100 µM
same,TGI,HS 578T breast,> 100 µM
same,TGI,A549 NSCLC,32.4 µM
same,TGI,DU-145 prostate,> 100 µM
same,TGI,HL-60(TB) leukemia,> 100 µM
same,TGI,SK-OV-3 ovarian,> 100 µM
same,TGI,RXF 393 renal,98.5 µM
same,TGI,SN12C renal,> 100 µM
same,TGI,OVCAR-8 ovarian,85.8 µM
same,TGI,UO-31 renal,> 100 µM
same,TGI,EKVX NSCLC,> 100 µM
same,TGI,A498 renal,> 100 µM
same,TGI,UACC-257 melanoma,> 100 µM
same,TGI,COLO 205 colon,53 µM
same,TGI,NCI-H522 lung,23 µM
same,TGI,SF-295 CNS,43.7 µM
same,TGI,NCI/ADR-RES ovarian,22.2 µM
same,TGI,OVCAR-3 ovarian,23.2 µM
same,TGI,SR leukemia,> 100 µM
same,TGI,MDA-MB-435,> 100 µM
same,TGI,786-0 renal,14.1 µM
same,TGI,CAKI-1 renal,> 100 µM
same,TGI,KM12 colon,> 100 µM
same,TGI,NCI-H460 lung,22.5 µM
same,TGI,T-47D breast,> 100 µM
same,TGI,M14 melanoma,> 100 µM
same,TGI,SK-MEL-2 melanoma,78.1 µM
same,TGI,NCI-H23 lung,> 100 µM
same,TGI,SNB-19 CNS,> 100 µM
CC1(c2nc3ccccc3[nH]2)CCC(C(N)=O)C(C)(C)O1 (stereo unspecified),TGI,BT-549 breast,> 100 µM
same,TGI,SF-539 CNS,> 100 µM
same,TGI,HCT-116 colon,> 100 µM
same,TGI,MCF7 breast,> 100 µM
same,TGI,MALME-3M melanoma,> 100 µM
same,TGI,RPMI-8226 leukemia,> 100 µM
same,TGI,HOP-62 NSCLC,> 100 µM
same,TGI,HOP-92 NSCLC,> 100 µM
same,TGI,K-562 leukemia,> 100 µM
same,TGI,CCRF-CEM leukemia,> 100 µM
same,TGI,U251 CNS,> 100 µM
same,TGI,PC-3 prostate,> 100 µM
same,TGI,UACC-62 melanoma,> 100 µM
same,TGI,NCI-H226 lung,> 100 µM
same,TGI,IGROV1 ovarian,> 100 µM
same,TGI,HCT-15 colon,> 100 µM
same,TGI,LOX IMVI melanoma,> 100 µM
same,TGI,HT29 colon,> 100 µM
same,TGI,SW-620 colon,> 100 µM
same,TGI,TK-10 renal,> 100 µM
same,TGI,SK-MEL-28 melanoma,> 100 µM
same,TGI,MOLT-4 leukemia,> 100 µM
same,TGI,MDA-N,> 100 µM
same,TGI,OVCAR-4 ovarian,> 100 µM
same,TGI,SF-268 CNS,> 100 µM
same,TGI,MDA-MB-231 breast,> 100 µM
same,TGI,HS 578T breast,> 100 µM
same,TGI,A549 NSCLC,> 100 µM
same,TGI,DU-145 prostate,> 100 µM
same,TGI,HL-60(TB) leukemia,> 100 µM
same,TGI,SK-OV-3 ovarian,> 100 µM
same,TGI,RXF 393 renal,> 100 µM
same,TGI,SN12C renal,> 100 µM
same,TGI,OVCAR-8 ovarian,> 100 µM
same,TGI,UO-31 renal,> 100 µM
same,TGI,EKVX NSCLC,> 100 µM
same,TGI,SNB-75 CNS,> 100 µM
same,TGI,UACC-257 melanoma,> 100 µM
same,TGI,COLO 205 colon,> 100 µM
same,TGI,NCI-H522 lung,> 100 µM
same,TGI,SF-295 CNS,> 100 µM
same,TGI,NCI/ADR-RES ovarian,> 100 µM
same,TGI,SK-MEL-5 melanoma,> 100 µM
same,TGI,ACHN renal,> 100 µM
same,TGI,OVCAR-3 ovarian,> 100 µM
same,TGI,SR leukemia,> 100 µM
same,TGI,HCC-2998 colon,> 100 µM
same,TGI,OVCAR-5 ovarian,> 100 µM
same,TGI,MDA-MB-435,> 100 µM
same,TGI,786-0 renal,> 100 µM
same,TGI,CAKI-1 renal,> 100 µM
same,TGI,KM12 colon,> 100 µM
same,TGI,T-47D breast,> 100 µM
same,TGI,M14 melanoma,> 100 µM
same,TGI,SK-MEL-2 melanoma,> 100 µM
same,TGI,NCI-H23 lung,> 100 µM
same,TGI,SNB-19 CNS,> 100 µM
